Reference: the METLIN SMRT retention time set (Domingo-Almenara et al. 2019)

Assay: gradient 5% acetonitrile 3 min, to 50% in 2 min, to 85% in 15 min, held 3 min, 100 µL/min
Conditions: column: Zorbax Extend-C18 2.1 x 50 mm; eluents: water / acetonitrile, 0.1% formic acid
Procedure, shortened: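 Mixtures of ~100 pure standards were chromatographed on a Zorbax Extend-C18 column (2.1 × 50 mm, 1.8 μm) at 100 μL/min using water and acetonitrile, each with 0.1% formic acid. Detection used a quadrupole time-of-flight mass spectrometer in positive and negative ionization mode, and data collection spanned 3 months. Retention time was obtained from adduct peaks picked computationally and each checked manually.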

Structure (SMILES) | RP-LC retention time [s]
Cc1ccc(NC(=O)Cn2cc3c(n2)CCC(C)C3)c(C)c1 (configuration not stated) | 987
c1ccc(Nc2nc(-c3ccc4c(c3)OCO4)cs2)nc1 | 849
Nc1nc(N)c2ncn(-c3ccccc3)c2n1 | 584
Cc1ccc(-c2nnc(SCc3noc(CCC(=O)Nc4ccc(F)c(Cl)c4)n3)o2)cc1 | 1020
O=C(Nc1ccc(OCc2nnc(-c3ccccc3)o2)cc1)c1ccsc1 | 864
Cc1noc(C)c1CC(=O)NCc1cccnc1Oc1ccccc1 | 734
Cc1ccc2nc(C(=O)NCc3cccc(F)c3)cn2c1 | 689
CCc1nc(-c2cccc(NC(=O)c3cncc(Br)c3)c2)no1 | 926
COC(=O)c1cccc(Nc2c(-c3ccc(N(C)C)cc3)nc3cnccn23)c1 | 776
Cc1nc(C)c(-c2ccc(SCC(=O)Nc3ccc4c(c3)OCCO4)nn2)s1 | 690
Cc1cccc(-n2c(=O)c3sccc3n(Cc3nc(-c4ccc(OC(C)C)cc4)no3)c2=O)c1 | 1120
Cc1nc2cc(-c3noc(Cc4c(F)cccc4Cl)n3)ccc2o1 | 1050
CCOc1ccc(NC(=O)c2nc(C)oc2C)cc1 | 884
CCCC(=O)Nc1ccc2c(c1)CC(C(=O)NCC(=O)OC)CO2 (configuration not stated) | 650
CCN(CC)c1nc(C(=O)N2CCN(C3CCN(C)CC3)CC2)nc2nc(C)cc(C)c12 | 540
COc1cc(=O)oc(/C=C/C=C/C=C/C(C)=C/C2(C)OC(C)C(C)(O)C2O)c1C (configuration not stated) | 846
CNC(=O)c1csc(NC(=O)c2cc(Cl)ccc2Cl)n1 | 685
COc1ccc(Cc2nc(-c3cccc(-c4ccn[nH]4)c3)no2)c(Cl)c1 | 1000
COc1ccc(Nc2nc(-c3nnn(-c4ccc(F)cc4F)c3C)ns2)cc1OC | 900
Cc1ccc2[nH]cc(NC(=O)NCCN(C)C)c(=O)c2c1 | 563
CC(C)CCC(=O)N1CCC2(CC1)N(C)C(=O)CS2(=O)=O | 644
CCn1c(CCNC(=O)c2ccc(C)c(F)c2)nc2cccnc21 | 676

Structure (SMILES) | RP-LC retention time [s]
O=C(Cn1ccn2nc(-c3ccccc3)c(CO)c2c1=O)Nc1ccccc1F | 865
Cc1cccc(Nc2ncccc2C(=O)O)c1C | 707
O=C(Nc1nc(-c2ccc3c(c2)OCO3)cs1)c1ccco1 | 798
Cc1nnc2n1CCC(NC(=O)CC1=CCCCC1)CC2 (configuration not stated) | 605
CCOCc1nc2c(N)nc3ccccc3c2n1CC(C)(C)O | 662
CC(C)NC(=O)N1CCCC(CCc2nnc(-c3cnccn3)o2)C1 (configuration not stated) | 627
CCC(C)n1c(=O)c2ccccc2n(Cc2nc(-c3ccc(C)cc3)no2)c1=O (configuration not stated) | 1240
CCC(C)C1Nc2ccc(C(=O)NCCCN3CCOCC3)cc2NC1=O (configuration not stated) | 584
Nc1nc(SCc2ccccc2Cl)c2[nH]cnc2n1 | 680
Cc1ccc(-c2nnc(Cc3nc(-c4ccc(OCC(C)C)cc4)no3)o2)cc1F | 919
Cc1ccc(C(=O)N(C)C2CCc3nnc(C)n3CC2)s1 (configuration not stated) | 613
CCN(CC)C(C)CN1c2ccccc2Sc2ccccc21 (configuration not stated) | 813
CCOC(=O)C(=O)N1CCN(c2ncnc3c2nnn3C)CC1 | 643
CCCCn1c(=O)c2ccccc2n(Cc2nc(-c3ccc(C)cc3)no2)c1=O | 853
Cn1c(C(=O)N(Cc2ccccc2)Cc2ccccc2)cc2c(=O)n3ccccc3nc21 | 1040
Cc1nc2ccccc2c(=O)n1Cc1noc(-c2ccc(C(F)(F)F)cc2)n1 | 987
Cn1c(SCC(=O)Nc2ncccn2)nnc1-c1ccc2c(c1)OCO2 | 579
Cc1cc(N(C)C)n2nc(CN3CCCC(C)C3)nc2n1 (configuration not stated) | 536
COC(=O)c1cccc(NC(=O)c2sc(-c3cn(C)c4ncccc34)nc2C)c1 | 927
Cn1cc(-c2ccncc2)cc1C(=O)NCc1ccc(F)cc1 | 640
COCCNC(=O)c1cn2ccc(C)cc2n1 | 616
Cc1nc2cc(-c3noc(-c4cccc(Br)c4)n3)ccc2o1 | 1270

The next lines start with the values.

RP-LC retention time [s] | Structure (SMILES)
1300 | CCOc1ccccc1NC(=O)C1CCCN(c2nc3c(s2)c(C)nn3-c2ccccc2)C1 (configuration not stated)
967 | CCc1nc(-c2cc(S(=O)(=O)N3CCC(C(=O)NCc4cccs4)CC3)c(C)s2)no1
753 | COc1ccc(NC(=O)N2CCC3(CC2)NC(=O)c2cc(Cl)ccc2N3C)cc1
909 | COc1ccc(N2CCN(S(=O)(=O)c3cc(-c4nnc(C5CC5)o4)co3)CC2)cc1
661 | CCOC(=O)N1CCN(S(=O)(=O)c2ccc(C(=O)Nc3nnc(C4CC4)o3)cc2)CC1
583 | CS(=O)(=O)N1CCC(OC2CCN(C(=O)c3cccnc3)CC2)CC1
628 | CCN1C(=O)C2CC3(CCN(C(=O)c4ccoc4)CC3)CN2C1=O (configuration not stated)
701 | NCCNS(=O)(=O)c1cccc2c(Cl)cccc12
632 | O=C(c1ccccc1OCC1CCCN(C2CCC2)C1)N1CCCCC1 (configuration not stated)
900 | O=C(c1ccc(F)c(F)c1)N1CCN(c2cc(-c3ccc(Cl)cc3)[nH]n2)CC1
941 | CCOC(=O)c1ccc(NS(=O)(=O)c2ccc(-c3c(C)noc3C)cc2)cc1
737 | Cc1ccc(C2=NC3(CCN(C(=O)c4ccsc4)CC3)ON2)cc1
952 | O=C(Cn1nc2c3cc(-c4ccccc4)nn3ccn2c1=O)Nc1cccc(Br)c1
995 | N#Cc1cccc(NC(=O)C2CCN(S(=O)(=O)c3cc(C(=O)N4CCCC4)cs3)CC2)c1
1040 | O=S(=O)(c1cccc2nsnc12)N1CCc2nc(-c3ccc(F)cc3)ncc2C1
625 | COCCCNC(=O)C1CCCN(c2ncnc3c2nc2n3CCCCC2)C1 (configuration not stated)
1030 | CCN(CC)S(=O)(=O)c1cc(-c2nnc(-c3ccccc3OC)o2)ccc1C
715 | Cc1ccccc1Sc1nccnc1SCC(=O)N1CCN(c2ccccn2)CC1
817 | O=C(Cc1cccs1)N1CCCC1c1cccc(F)c1 (configuration not stated)
907 | Cc1cc(Cl)ccc1NC(=O)N1C[C@@H]2C[C@H](NC(=O)c3ccccc3)[C@H]1C2
1320 | Cc1nc(-c2csc(S(=O)(=O)N3CCN(c4ccccc4Cl)CC3)c2)sc1C
600 | O=C(Nc1ccc(N2CCOCC2)cc1)c1cn2c(n1)CSCC2
1090 | CCc1ccccc1S(=O)(=O)N1CC=C(c2cn(C)c3ncccc23)CC1
610 | O=C(N[C@@H]1CN(Cc2cc(Cl)ccc2F)C[C@H]1CO)C1CCC1

RP-LC retention time [s] | Structure (SMILES)
1020 | COc1ccc(S(=O)(=O)N2CCCC(C(=O)N3CCc4ccccc4C3)C2)cc1Cl (configuration not stated)
862 | COc1ccc(-c2cn3ccn(-c4ccc(F)c(Cl)c4)c(=O)c3n2)cc1
781 | CCS(=O)(=O)Nc1ccc(C2(C(=O)NCC3CCCO3)CCCCC2)cc1 (configuration not stated)
695 | Cc1cccc(NS(=O)(=O)c2cc3n(c2)CCCN(C)C3=O)c1
824 | Cc1noc(-c2cccc(OC3CN(C(=O)c4cccc5[nH]ccc45)C3)c2)n1
969 | COc1cccc(CNC(=O)C2(C)CCCN(C(=O)Nc3ccc(Br)cc3)C2)c1 (configuration not stated)
958 | COC(=O)c1ccccc1NC(=O)N1CCCn2nc(-c3cccn3C)cc21
889 | COc1ccc(Cl)cc1NC(=O)C1CCN(S(=O)(=O)c2cc(C(=O)N(C)C)cs2)CC1
682 | CCNc1nc(C)cc(N2CCN(C(=O)Nc3ccc(Cl)cc3)CC2)n1
578 | COCCNC(=O)C1CCN(c2nc3ccc(-c4cccnc4)nc3s2)CC1
743 | O=C(Nc1nccs1)C1CCN(C(=O)c2cnn(-c3ccccc3)n2)CC1
573 | COc1nn(C)cc1C(=O)NCc1n[nH]c(=O)c2ccccc12
910 | COc1cc(OC)cc(N2C=C(C#N)S(=O)(=O)c3ccccc32)c1
624 | O=C(NCc1cccnc1)C1c2ccccc2C(=O)N1C1CCCCCC1 (configuration not stated)
729 | CCN(CC)c1nc2cc(C(=O)N3CCN(c4ccccn4)CC3)ccc2c(=O)n1Cc1ccccc1
700 | O=C(c1nnc(-c2ccc(S(=O)(=O)N3CCCCC3)cc2)o1)N1CCN(C2CCCCC2)CC1
601 | CCOc1cc(=O)n2c(c1C(=O)N1CCOCC1)CCCCC2
848 | COc1cc(NC(=O)N2CCCC2c2cccc(F)c2)cc(OC)c1OC (configuration not stated)
862 | CC1CCN(C(=O)c2cc(S(=O)(=O)N(C)CC(=O)N3CCN(c4ccccc4)CC3)c[nH]2)CC1
601 | CCc1cc(N2CCN(C(=O)COc3ccccc3OC)CC2)nc2nncn12
638 | CN1CCCc2ccc(NC(=O)CC3CCCN(c4cn[nH]c(=O)c4)C3)cc21 (configuration not stated)
776 | O=C(COc1ccc(Cl)cc1)N1CCC2(C1)C(=O)Nc1ccccc12 (configuration not stated)
718 | Cc1nc2cccnc2n1CC1CCCN(S(=O)(=O)Cc2ccc(Cl)cc2)C1 (configuration not stated)
933 | Cc1ccc(S(=O)(=O)CC(=O)Nc2nc(-c3ccccc3)cs2)cc1
